Literature values as cited in PMC5733301, “Antitubercular Nitroimidazoles Revisited: Synthesis and Activity of the Authentic 3-Nitro Isomer of Pretomanid” (ACS Medicinal Chemistry Letters, 2017).

How the values were obtained:
[1] = tested on: M. tb having mutations in the nitroreductase Ddn; parameters: method as in PMID 19209889; conditions: ref [22]; cited from earlier work
[2] = tested on: M. tb having mutations in the nitroreductase Ddn; parameters: method as in PMID 19209889; conditions: ref [22]; cited from earlier work; remark: listed apart in the source

Which results are given for O=[N+]([O-])c1cn2c(n1)O[C@H](COCc1ccc(OC(F)(F)F)cc1)C2 [compound 20]?
anaerobic MIC90 against Ddn mutant M. tb [1]: 62.5 to 125 µM; aerobic MIC99 against Ddn mutant M. tb [2]: > 100 µM
